Measurements published in US12383631B2, “Immune antigen specific IL-18 immunocytokines and uses thereof” (Bright Peak Therapeutics AG, priority 2022, dated 2025).

Legend:
[1] = test system: parental PD-1 negative KG-1 cells; experiment: IFN gamma secretion assay in parental PD-1 negative KG-1 cells (Example 11); assay type: cell-based, human; settings: IFNγ secretion, 20-24 h
Procedure: The KG-1 cell line was used to generate a PD-1 expressing cell line and furthermore, to measure IFNγ release upon incubation with TL-18 variants and corresponding TL-18 immunocytokines.
IFNγ release was assessed in PD-1 positive (transduced) KG-1 cells, as well as in the parental PD-1 negative cells. 0.5×10^5 cells were seeded into a 96-well U-bottom plate in culture media (RPMI, 10% FBS, […]) and stimulated with IL-18 variants/ICs for 20-24 h. The test items were diluted to 100 nM in culture medium, followed by 7 10-fold serial dilutions. The lowest concentration assessed was […]. After incubation, IFNγ release was measured using the LEGENDplex custom human mix and match KIT (Biolegend LEGENDplex™ Human IFN-γ Capture Bead B5, 13×#740942, LEGENDplex™ P 1 Essential Immune Response Panel Detection Abs, #740931, LEGENDplex™ Buffer Set A #740368). To this end, cell culture supernatant was collected and diluted 1:1 with Assay Buffer. Fluorescence measurements were done with a Quanteon Flow Cytometer from Acea Biosciences. For analysis, MFI values (median fluorescence intensity) were exported and plotted against concentrations used. The EC50 values (half maximal effective concentration) were calculated based on a variable slope and four parameter analysis using GraphPad PRISM software version 9.

NK92 cells = biological target: T1, NK92 cells (Homo sapiens, UniProt O95256+Q13478); experiment: IFN gamma secretion assay in NK92 cells (Example 10); assay type: cell-based; settings: 1 ng/ml IL-12, 16-20 h, read-out: EC50 IFNγ secretion NK92 assay
T1 sequence (Q13478 19-541): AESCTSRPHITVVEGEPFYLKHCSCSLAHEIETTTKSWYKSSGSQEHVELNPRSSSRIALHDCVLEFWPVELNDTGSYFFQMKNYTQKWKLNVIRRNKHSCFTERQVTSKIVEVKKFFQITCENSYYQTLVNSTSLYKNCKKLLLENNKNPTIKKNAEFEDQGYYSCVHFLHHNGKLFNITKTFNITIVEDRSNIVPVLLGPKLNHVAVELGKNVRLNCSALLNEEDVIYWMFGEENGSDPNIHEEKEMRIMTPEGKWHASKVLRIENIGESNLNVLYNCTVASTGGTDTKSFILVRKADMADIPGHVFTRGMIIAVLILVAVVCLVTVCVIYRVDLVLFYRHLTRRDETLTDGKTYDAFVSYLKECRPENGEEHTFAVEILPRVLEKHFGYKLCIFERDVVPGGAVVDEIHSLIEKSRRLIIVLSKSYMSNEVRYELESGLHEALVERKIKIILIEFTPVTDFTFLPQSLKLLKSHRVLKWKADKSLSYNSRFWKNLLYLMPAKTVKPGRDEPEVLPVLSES
T1 sequence (O95256 20-599): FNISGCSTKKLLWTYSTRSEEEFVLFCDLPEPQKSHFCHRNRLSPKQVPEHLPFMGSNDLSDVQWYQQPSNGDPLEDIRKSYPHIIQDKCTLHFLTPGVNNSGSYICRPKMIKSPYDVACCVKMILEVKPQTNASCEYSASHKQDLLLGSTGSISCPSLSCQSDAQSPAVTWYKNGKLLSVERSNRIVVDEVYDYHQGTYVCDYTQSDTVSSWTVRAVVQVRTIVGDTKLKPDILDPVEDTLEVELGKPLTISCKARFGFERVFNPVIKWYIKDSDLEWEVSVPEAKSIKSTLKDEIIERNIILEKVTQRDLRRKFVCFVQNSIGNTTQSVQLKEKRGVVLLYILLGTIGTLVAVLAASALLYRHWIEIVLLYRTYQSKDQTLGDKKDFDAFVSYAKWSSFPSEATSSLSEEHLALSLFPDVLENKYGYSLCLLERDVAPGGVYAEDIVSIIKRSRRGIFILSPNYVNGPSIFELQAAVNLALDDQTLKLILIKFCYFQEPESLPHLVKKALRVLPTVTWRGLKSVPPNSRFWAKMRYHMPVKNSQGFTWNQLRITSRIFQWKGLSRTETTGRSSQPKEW
Procedure: The IFNγ-secretion stimulating activity of the unconjugated IL-18 variants and corresponding IL-18 immunocytokines was evaluated on NK92 cell line. The NIK cell line NK-92 derived from a patient with lymphoma (ATCC, Cat #CRL-2407) was cultured in aMIEM medium supplemented with 12.5% FCS, 12.5% horse serum (HS), 50 uM B-mercaptoEthanol, and 2 ng/ml of recombinant Human Interleukin-2 (IL-2).
On the day of experiment, cells were harvested and washed with aNMEM medium without IL-2 and resuspended in medium (w/o IL-2) containing 1 ng/ml of recombinant human Interleukin-12 (Sinofliologicals, Cat #CT011-H08H). After counting, cells were seeded at 100 000 cells/well in a 384 well titer plate and incubated at 37° C./5% CO2. […]
After 16-20 h incubation at 37° C./5% CO2, 5 μl of supernatant were carefully transferred to a 384 microwells OPTIPlate (Perkin Elmer; Cat #6007270) and Interferon-gamma (IFNγ) levels measured using the Human IFNγ AlphaLISA Assay Kit (Perkin Elmer, Cat #AL217C). […] AlphaLisa signal was then measured on an Enspire plate reader (Perkin Elmer) using 680 and 615 nm as excitation and emission wavelengths respectively. Half maximal effective concentration (EC50) was calculated based on a variable slope, four parameter analysis using GraphPad PRISM software.

EC50 (NK92 cells): 1 pM
Substance: Composition B: immunocytokine: Atezolizumab/Tecentriq (anti-PD-L1) conjugated to IL-18 polypeptide SEQ ID NO: 30
EC50 [1]: 1.6 pM
